According to patent publication US10689343B2, “Inhibitors of tryptophan 2,3-dioxygenase” (NETHERLANDS TRANSLATIONAL RESEARCH CENTER B.V., priority 2016, dated 2020):
“And” between values parts separate entries of the source, which are not always exact repeats. Equal values may be shown once. Read-outs that look alike come from different tables or passages of the source.

What was measured:
[1] = molecular target: T1, TDO in SW48 colorectal carcinoma cells (Homo sapiens, UniProt P48775); test: Cell-based assay for TDO in SW48 colorectal carcinoma cells (NFK GreenScreen); details: 18 hours with L-tryptophan
T1 construct: Endogenous expression of TDO has been determined in a variety of cancer cell lines; host or cells: SW48 colorectal carcinoma cells
Method: The biological activity of TDO inhibitors can be measured by applying above detection methods to cells that are treated with test compound. Endogenous expression of TDO has been determined in a variety of cancer cell lines (Pilotte et al.; Seegers, et al.), or TDO can be expressed in cells that lack endogenous TDO by transfection of an expression vector containing TDO cDNA. […] A preferred assay is the cell-based NFK GreenScreen™ assay (Seegers et al, supra), which measures the cellular inhibitory activity of compounds on TDO. […] No. V9920). Cell-Based Assay for TDO The NFK GreenScreen™ assay technology was also used to determine the inhibitory activity of compounds on TDO in SW48 colorectal carcinoma cells (Seegers, N., et al., J. Biol. Screen. 19: 1266; 2014). […] Compounds were dissolved in DMSO and diluted in RPMI 1640. Final DMSO concentration in the assay was 0.4% (v/v). Eight thousand cells per well in 40 μl were seeded in a black 384-well tissue plate (cat. No. 781086; […] To determine NFK levels, 12 μl NFK Green™ (NTRC, Oss, The Netherlands) was added to each well, and the plate was sealed and incubated for 4 hours at 37° C. Fluorescence was measured on an EnVision multimode reader (Perkin Elmer, Waltham, Mass., USA).

CYP2D6 = CYP2D6 (Homo sapiens, UniProt P10635); test: P450-Glo CYP2D6 Luc-IP assay
CYP3A4 = CYP3A4 (Homo sapiens, UniProt P08684); test: P450-Glo CYP3A4 luciferin isopropylacetal (Luc-IP) assay
Recombinant TDO = molecular target: T2, Recombinant TDO (Homo sapiens, UniProt P48775); test: Biochemical assay for TDO (NFK GreenScreen); details: 50 nM TDO, 200 μM L-tryptophan
T2 construct: Recombinant TDO (Seegers, N., et al.) and all other assay components were diluted in TDO reaction buffer
In short: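 Recombinant human TDO (50 nM) preincubated with compound 60 min at room temperature in 100 mM NaH2PO4 pH 7.0, 0.02% Tween-20, with ascorbic acid. Reaction then run 15 min with 200 μM L-tryptophan (final), 0.3% DMSO. NFK product detected by NFK Green fluorescence after 3 h at 37° C; IC50 derived.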

T2 sequence (P48775 whole entry): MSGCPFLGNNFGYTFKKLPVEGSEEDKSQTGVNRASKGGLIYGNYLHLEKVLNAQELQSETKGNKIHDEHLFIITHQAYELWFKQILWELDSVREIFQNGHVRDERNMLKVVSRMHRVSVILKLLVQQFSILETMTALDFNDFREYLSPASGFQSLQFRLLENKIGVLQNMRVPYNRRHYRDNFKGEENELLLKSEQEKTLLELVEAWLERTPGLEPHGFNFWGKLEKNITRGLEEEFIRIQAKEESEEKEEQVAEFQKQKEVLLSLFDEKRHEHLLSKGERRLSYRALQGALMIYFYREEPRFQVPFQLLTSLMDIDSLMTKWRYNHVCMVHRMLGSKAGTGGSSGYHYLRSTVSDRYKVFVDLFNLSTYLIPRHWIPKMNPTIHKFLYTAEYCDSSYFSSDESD
T1 sequence (P48775 whole entry): as above
CYP2D6, sequence (P10635 whole entry): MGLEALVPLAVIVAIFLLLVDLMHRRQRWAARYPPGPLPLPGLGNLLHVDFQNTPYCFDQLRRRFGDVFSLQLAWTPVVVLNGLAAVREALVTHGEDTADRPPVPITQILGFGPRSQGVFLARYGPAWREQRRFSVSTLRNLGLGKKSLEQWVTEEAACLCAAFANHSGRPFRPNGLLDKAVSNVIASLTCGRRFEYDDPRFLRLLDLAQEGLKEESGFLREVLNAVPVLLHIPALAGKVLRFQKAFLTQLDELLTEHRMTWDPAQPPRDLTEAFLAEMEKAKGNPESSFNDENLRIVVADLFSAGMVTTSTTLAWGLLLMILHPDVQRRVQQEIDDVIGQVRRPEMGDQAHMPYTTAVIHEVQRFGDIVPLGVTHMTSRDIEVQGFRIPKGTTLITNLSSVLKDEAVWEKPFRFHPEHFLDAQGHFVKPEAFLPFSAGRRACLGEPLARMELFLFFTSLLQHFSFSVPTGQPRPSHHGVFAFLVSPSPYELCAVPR
CYP3A4, sequence (P08684 whole entry): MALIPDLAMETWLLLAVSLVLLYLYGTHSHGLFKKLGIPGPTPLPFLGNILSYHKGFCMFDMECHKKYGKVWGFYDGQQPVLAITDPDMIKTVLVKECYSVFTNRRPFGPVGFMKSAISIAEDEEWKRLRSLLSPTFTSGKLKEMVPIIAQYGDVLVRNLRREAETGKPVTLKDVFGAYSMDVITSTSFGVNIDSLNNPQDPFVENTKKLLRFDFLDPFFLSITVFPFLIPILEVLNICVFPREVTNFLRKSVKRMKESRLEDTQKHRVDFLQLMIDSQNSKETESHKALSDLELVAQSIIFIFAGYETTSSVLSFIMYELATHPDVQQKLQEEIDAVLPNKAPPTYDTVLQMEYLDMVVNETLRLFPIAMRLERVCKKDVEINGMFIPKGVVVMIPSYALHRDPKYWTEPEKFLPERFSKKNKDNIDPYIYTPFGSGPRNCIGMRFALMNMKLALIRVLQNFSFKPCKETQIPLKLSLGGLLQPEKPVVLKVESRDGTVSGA

IC50 ([1]; read-out: IC50 on TDO in cells) | IC50 (CYP2D6) | IC50 (CYP3A4) | IC50 (Recombinant TDO) | Structure (SMILES) | IC50 ([1]; IC50 on TDO in cells)
≤ 500 nM and 200 to 500 nM | > 10000 nM | > 10000 nM | < 1000 nM | N[C@@H]1CCC[C@H](C(=O)Nc2ccc(-c3c[nH]c4cc(F)ccc34)cc2)C1 [Example 105, (1S,3R)-3-amino-N-[4-(6-fluoro-1H-indol-3-yl)phenyl]cyclohexanecarboxamide] | –
≤ 200 nM | > 10000 nM | > 10000 nM | < 1000 nM | CC(CN(C)C)NC(=O)c1ccc(-c2c[nH]c3cc(F)ccc23)cc1 (stereo not drawn) [Example 1, N-[2-(dimethylamino)-1-methyl-ethyl]-4-(6-fluoro-1H-indol-3-yl)benzamide] | –
≤ 500 nM and 200 to 500 nM | > 10000 nM | > 10000 nM | 1000 to 5000 nM | NS(=O)(=O)N1CCCC(NC(=O)c2ccc(-c3c[nH]c4cc(F)ccc34)cc2)C1 (stereo not drawn) [Example 132, 4-(6-Fluoro-1H-indol-3-yl)-N-(1-sulfamoyl-3-piperidyl)benzamide] | –
≤ 200 nM | > 10000 nM | > 10000 nM | < 1000 nM | CN1CCC(NC(=O)c2ccc(-c3c[nH]c4cc(F)ccc34)cc2Cl)CC1 [Example 69, 2-Chloro-4-(6-fluoro-1H-indol-3-yl)-N-(1-methyl-4-piperidyl)benzamide] | –
≤ 200 nM | > 10000 nM | > 10000 nM | < 1000 nM | CN(C)CC(O)CNC(=O)c1ccc(-c2c[nH]c3cc(F)ccc23)cc1 (stereo not drawn) [Example 78, N-[3-(dimethylamino)-2-hydroxy-propyl]-4-(6-fluoro-1H-indol-3-yl)benzamide] | –
≤ 200 nM | > 10000 nM | > 10000 nM | < 1000 nM | CN1CCC(NC(=O)c2ccc(-c3c[nH]c4cc(F)ccc34)cc2)CC1 [Example 24, 4-(6-Fluoro-1H-indol-3-yl)-N-(1-methyl-4-piperidyl)benzamide] | –
≤ 500 nM and 200 to 500 nM | > 10000 nM | > 10000 nM | < 1000 nM | O=C(NC1CCOCC1)c1ccc(-c2c[nH]c3cc(F)ccc23)cc1 [Example 44, 4-(6-Fluoro-1H-indol-3-yl)-N-tetrahydropyran-4-yl-benzamide] | –
≤ 500 nM and 200 to 500 nM | > 10000 nM | 5000 to 10000 nM | < 1000 nM | N[C@H]1CC[C@@H](C(=O)Nc2ccc(-c3c[nH]c4cc(F)ccc34)cc2)C1 [Example 106, (1R,3S)-3-amino-N-[4-(6-fluoro-1H-indol-3-yl)phenyl]cyclopentanecarboxamide] | –
≤ 200 nM | > 10000 nM | 5000 to 10000 nM | < 1000 nM | O=C(N[C@H]1CCCNC1)c1ccc(-c2c[nH]c3cc(F)ccc23)cc1Cl [Example 55, 2-Chloro-4-(6-fluoro-1H-indol-3-yl)-N-[(3S)-3-piperidyl]benzamide] | –
≤ 500 nM and 200 to 500 nM | > 10000 nM | > 10000 nM | < 1000 nM | O=C(NCCN1C[C@H](O)[C@@H](O)C1)c1ccc(-c2c[nH]c3cc(F)ccc23)cc1Cl [Example 115, 2-Chloro-N-[2-[(3S,4S)-3,4-dihydroxypyrrolidin-1-yl]ethyl]-4-(6-fluoro-1H-indol-3-yl)benzamide] | –
≤ 500 nM and 200 to 500 nM | > 10000 nM | > 10000 nM | < 1000 nM | COCC(=O)Nc1ccc(-c2c[nH]c3cc(F)ccc23)cc1 [Example 27, N-[4-(6-fluoro-1H-indol-3-yl)phenyl]-2-methoxy-acetamide] | –
≤ 200 nM | > 10000 nM | 5000 to 10000 nM | < 1000 nM | CN1CCN(CCCNC(=O)c2ccc(-c3c[nH]c4cc(F)ccc34)cc2)CC1 [Example 135, 4-(6-Fluoro-1H-indol-3-yl)-N-[3-(4-methylpiperazin-1-yl)propyl]benzamide] | –
≤ 500 nM and 200 to 500 nM | > 10000 nM | > 10000 nM | < 1000 nM | CC(C)[C@H](C)NC(=O)c1ccc(-c2c[nH]c3cc(F)ccc23)cc1 [Example 49, N-[(1S)-1,2-dimethylpropyl]-4-(6-fluoro-1H-indol-3-yl)benzamide] | –
≤ 500 nM and 200 to 500 nM | > 10000 nM | > 10000 nM | < 1000 nM | COC[C@@H](C)NC(=O)c1ccc(-c2c[nH]c3cc(F)ccc23)cc1 [Example 17, 4-(6-Fluoro-1H-indol-3-yl)-N-[(1R)-2-methoxy-1-methyl-ethyl]benzamide] | –
≤ 500 nM and 200 to 500 nM | > 10000 nM | > 10000 nM | 1000 to 5000 nM | COc1cc(-c2c[nH]c3cc(F)ccc23)ccc1C(=O)N[C@H](C)CO [Example 111, 4-(6-Fluoro-1H-indol-3-yl)-N-[(1R)-2-hydroxy-1-methyl-ethyl]-2-methoxy-benzamide] | –
≤ 500 nM and 200 to 500 nM | > 10000 nM | > 10000 nM | < 1000 nM | N[C@H]1CCC[C@@H](C(=O)Nc2ccc(-c3c[nH]c4cc(F)ccc34)cc2)C1 [Example 103, (1R,3S)-3-amino-N-[4-(6-fluoro-1H-indol-3-yl)phenyl]cyclohexanecarboxamide] | –
≤ 500 nM and 200 to 500 nM | > 10000 nM | > 10000 nM | < 1000 nM | CC(C)[C@@H](CO)NC(=O)c1ccc(-c2c[nH]c3cc(F)ccc23)cc1 [Example 3, 4-(6-Fluoro-1H-indol-3-yl)-N-[(1S)-1-(hydroxymethyl)-2-methyl-propyl]benzamide] | –
≤ 500 nM and 200 to 500 nM | > 10000 nM | 5000 to 10000 nM | 1000 to 5000 nM | C[C@H](NC(=O)c1ccc(-c2c[nH]c3cc(F)ccc23)cc1)c1nnc2ccccn12 [Example 45, 4-(6-Fluoro-1H-indol-3-yl)-N-[(1S)-1-([1,2,4]triazolo[4,3-a]pyridin-3-yl)ethyl]benzamide] | –
≤ 200 nM | > 10000 nM | > 10000 nM | < 1000 nM | C[C@@H](CO)NC(=O)c1ccc(-c2c[nH]c3cc(F)ccc23)cc1Cl [Example 54, 2-Chloro-4-(6-fluoro-1H-indol-3-yl)-N-[(1S)-2-hydroxy-1-methyl-ethyl]benzamide] | –
≤ 500 nM and 200 to 500 nM | > 10000 nM | 5000 to 10000 nM | < 1000 nM | C[C@H]1CNCC[C@H]1C(=O)Nc1ccc(-c2c[nH]c3cc(F)ccc23)cc1 [Example 110, (3R,4R)—N-[4-(6-fluoro-1H-indol-3-yl)phenyl]-3-methyl-piperidine-4-carboxamide] | –
≤ 500 nM and 200 to 500 nM | > 10000 nM | 5000 to 10000 nM | 1000 to 5000 nM | CC(=O)N1CCCC(NC(=O)c2ccc(-c3c[nH]c4cc(F)ccc34)cc2)C1 (stereo not drawn) [Example 119, N-(1-acetyl-3-piperidyl)-4-(6-fluoro-1H-indol-3-yl)benzamide] | –
≤ 200 nM | > 10000 nM | 5000 to 10000 nM | < 1000 nM | C[C@@H](CO)NC(=O)c1ccc(-c2c[nH]c3cc(F)ccc23)cc1F [Example 123, 2-Fluoro-4-(6-fluoro-1H-indol-3-yl)-N-[(1S)-2-hydroxy-1-methyl-ethyl]benzamide] | –
≤ 200 nM | > 10000 nM | > 10000 nM | < 1000 nM | COc1cc(-c2c[nH]c3cc(F)ccc23)ccc1C(=O)NCCCN(C)C [Example 137, N-[3-(dimethylamino)propyl]-4-(6-fluoro-1H-indol-3-yl)-2-methoxy-benzamide] | –
≤ 500 nM and 200 to 500 nM | > 10000 nM | > 10000 nM | < 1000 nM | C[C@H](CO)NC(=O)c1ccc(-c2c[nH]c3cc(F)ccc23)cc1Cl [Example 51, 2-Chloro-4-(6-fluoro-1H-indol-3-yl)-N-[(1R)-2-hydroxy-1-methyl-ethyl]benzamide] | –
≤ 500 nM and 200 to 500 nM | > 10000 nM | > 10000 nM | < 1000 nM | O=C(N[C@@H]1CCCC[C@H]1O)c1ccc(-c2c[nH]c3cc(F)ccc23)cc1 [Example 50, 4-(6-Fluoro-1H-indol-3-yl)-N-[(1R,2R)-2-hydroxycyclohexyl]benzamide] | –

Structure (SMILES) | IC50 ([1]; read-out: IC50 on TDO in cells) | IC50 (CYP2D6) | IC50 (CYP3A4) | IC50 (Recombinant TDO) | IC50 ([1]; IC50 on TDO in cells)
C[C@H](CO)NC(=O)c1ccc(-c2c[nH]c3cc(F)ccc23)cc1 [Example 14, 4-(6-fluoro-1H-indol-3-yl)-N-[(1R)-2-hydroxy-1-methyl-ethyl]benzamide] | – | 5000 to 10000 nM | > 10000 nM | < 1000 nM | ≤ 500 nM and 200 to 500 nM
C[C@@H](CO)NC(=O)c1ccc(-c2c[nH]c3cc(F)ccc23)cc1 [Example 15, 4-(6-fluoro-1H-indol-3-yl)-N-[(1S)-2-hydroxy-1-methyl-ethyl]benzamide] | – | > 10000 nM | > 10000 nM | < 1000 nM | ≤ 200 nM
